The values that follow come from US20040116451A1, “Method of treatment” (Pfizer Inc., priority 2002, published 2004).

In this assay the test system is men with lower urinary tract symptoms. Briefly: 12-Week double-blind study in men with lower urinary tract symptoms (IPSS and bladder diary). Type of assay: in vivo. The following applies: for improvement in IPSS irritative domain: subjects with baseline IPSS irritative domain score ≧β; for improvement in IPSS irritative domain / improvement in irritative LUTS (urgency, daytime micturition frequency, nocturia; bladder diary): controlled release formulation, 12 weeks; for improvement in irritative LUTS (urgency, daytime micturition frequency, nocturia; bladder diary): subjects with irritative LUTS at baseline, compared with placebo. The protocol: A 12-Week Study in men with lower urinary tract symptoms was undertaken in which the IPSS (International Prostate Symptom Score) was recorded at baseline during, and at the end of, double-blind treatment. The IPSS is composed of seven questions, each with potential responses of 0-5 on a Likert scale. These questions are grouped into two validated domains: the irritative domain (urgency, frequency and nocturia) and the obstructive domain (incomplete emptying, intermittency, weak stream and straining to begin). […] The average daily incidence of urgency, daytime micturition frequency and nocturia (the irritative symptoms) for each subject were derived from this diary. In this study, there were […] treatment groups: 6 mg fixed dose of 4-amino-6,7-dimethoxy-2-(5-methanesulfonamido-1,2,3,4-tetrahydroisoquinol-2-yl)-5-(2-pyridyl)quinazoline, 6 mg escalated to 12 mg at Week 4 of the compound, and placebo. Controlled release formulations according to International Application Publication No. WO 03/032956 were used in each case.

[1] abbreviates: 12 mg dose escalation group (6 mg escalated to 12 mg at Week 4).

Take `COc1cc2nc(N3CCc4c(cccc4NS(C)(=O)=O)C3)nc(N)c2c(-c2ccccn2)c1OC` [4-amino-6,7-dimethoxy-2-(5-methanesulfonamido-1,2,3,4-tetrahydroisoquinol-2-yl)-5-(2-pyridyl)quinazoline]: under “12-week study in men with LUTS, controlled release formulations”, the “attenuation of irritative LUTS (overall study result, FIGS. 1 to 4)” value is “clinically significant attenuation of irritative LUTS”. For the same molecule, the “improvement in IPSS irritative domain” value is reported as “improvement in this domain of the IPSS was similarly confirmed” (6 mg fixed dose group) and “improvement in this domain of the IPSS was similarly confirmed” under setting [1]. The “improvement in irritative LUTS (urgency, daytime micturition frequency, nocturia; bladder diary)” value is, setting by setting: (6 mg fixed dose group) “improvement in these symptoms was confirmed”; under setting [1], “improvement in these symptoms was confirmed”.
